# US20260325485A1, “COMPOSITIONS AND METHODS FOR TREATING PANCREATITIS” (The United States Government as represented by the …, priority 2022, published 2026)
# Entries after “also recorded” stand apart in the source; their conditions may differ.
# Assays:
# [1] = test system: CER/CCK-AP; test: Effect of simvastatin and BemA in CER/CCK-AP (mouse and ex-vivo model)
# Procedure: FIGS. 25A-25C show reducing cholesterol overload greatly ameliorates experimental pancreatitis. CER-AP responses were measured in (A) AclyAac or (C) WT mice treated with simvastatin or bempedoic acid (BemA). (B) Acinar cells were transfected with ACLA (or mock) siRNA and subjected to ex-vivo CCK-AP. Each symbol represents an individual mouse or cell preparation. Values are mean±SE. **p<0.01, ***p<0.001 vs saline treated control mice (or mock transfection); #p<0.05, ##p<0.01, ###p<0.001 vs CER/CCK-AP in control mice (i.e. without inhibitors) or cells.
# FIGS. 26A-26D preventing cholesterol overload ameliorates ex-vivo pancreatitis. Mouse pancreatic acinar cells were incubated (A, B) with simvastatin (4 μM, 3 h) or (C, D) cholesterol chelator, methyl-β-cyclodextrin (MCD; 10 mM, 1 h) and then subjected to CCK-AP for 1 (D) or 3 h (A, B). Cholesterol content (A, C) necrosis (B), and trypsin activity (D) were measured. Each symbol represents an individual cell preparation. Values are mean±SEM*p<0/05, **p<0.01 vs control; #p<0.05 ##p<0.01; vs CCK, no inhibitor.
# Cholesterol metabolism is disrupted in pancreatitis as a result of lysosomal/autophagy dysfunction. Preventing acinar cell cholesterol overload with simvastatin alleviates AP in one experimental model (CER-AP). As discussed above, lysosomal/autophagy dysfunction is associated with both experimental and human pancreatitis.^6, 7, 9, 13, 17 However, until a recent publication^13 there was very little known on cholesterol metabolism in healthy pancreas, its changes in experimental and human pancreatitis, and role in disease severity. Further, effects of statins and other cholesterol-lowering drugs in pancreas, and the underlying mechanisms, have not been explored. […] This, in turn, stimulates a compensatory increase in cholesterol synthesis, further exacerbating cholesterol overload. It was further shown^13 that inhibition of cholesterol synthesis with simvastatin reduced acinar cell cholesterol overload and the severity of pancreatitis induced with supramaximal cerulein (CER), an ortholog of the hormone cholecystokinin-8 (CCK). The findings^13 reveal a previously unrecognized pathogenic role of cholesterol dysregulation in pancreatitis and indicate normalizing cholesterol metabolism as a novel therapeutic approach for disease treatment.
# In summary, the published^13 and current data (FIGS. 23-26) reveal that disruption of acinar cell cholesterol metabolism is a common feature in models of experimental pancreatitis and also prominent in human disease. The key manifestation of cholesterol dyshomeostasis in pancreatitis is acinar cell cholesterol overload. […]
# [2] = test system: pancreas; test: Drug treatment of Gnptab−/− mice: pancreatic total cholesterol; type: in vivo, mouse
# Procedure: 12-week-old Gnptab−/− mice were subjected to daily i.p. injections of 20 mg/kg simvastatin or the same dose of T0901317 for 4 or 21 days.
# Total cholesterol content was measured with Cholesterol Assay kit per manufacturer's instructions. Samples of mouse pancreas and liver, cell pellet homogenates, subcellular fractions, isolated mitochondria, and serum were diluted in the reaction buffer containing cholesterol probe and incubated at 37° C. for 1 h in the dark. To measure total cholesterol, the samples were subjected to digestion with cholesterol esterase. To measure non-esterified cholesterol, the esterase was omitted from the assay.
smiles,measurement,setting,value
CCC(C)(C)C(=O)O[C@H]1C[C@@H](C)C=C2C=C[C@H](C)[C@H](CC[C@@H]3C[C@@H](O)CC(=O)O3)[C@H]21 [simvastatin],"cholesterol overload, CER/CCK-AP",[1],reduced; also recorded: prevented
same,"disease severity, CER/CCK-AP",[1],reduced
same,"total cholesterol content in pancreas, Gnptab−/− mice",[2]; 20 mg/kg i.p. daily for 4 or 21 days,Neither treatment changed
same,"pancreatic total cholesterol, Gnptab−/− mice",[2]; even for 3 weeks,failed to decrease
